Measurements published in PMC6882465, “Towards discovery of new leishmanicidal scaffolds able to inhibit Leishmania GSK-3” (Journal of Enzyme Inhibition and Medicinal Chemistry, 2019).
Where two headings read alike, the source gives them in different places.

Tests used:
LdGSK-3 = LdGSK-3 (Leishmania donovani, UniProt A6N857); assay: Inhibition of LdGSK-3 with Kinase Glo; type: biochemical; settings: for IC50: read-out: LdGSK-3 IC50; for % inhibition @ 10µM (initial screening on LdGSK3): Table S2; for percentage of inhibition of LdGSK-3: assayed at 10 µM
Experimental: Assessment of inhibition of LdGSK-3 with Kinase Glo^TM
The reaction was allowed to proceed for 30 min at 30 °C, then it was incubated at room temperature for another 10 min after addition of Kinase Glo reagents (Promega, Ref. V6712). ATP consumption by LdGSK-3 was measured indirectly through end-point luminescence measurement of each well in a Varioskan Flash microplate reader (Thermo).

[1] = test system: L. infantum promastigotes; assay: Leishmanicidal assay on promastigotes (inhibition of MTT reduction); type: cell-based, Leishmania infantum; settings: Table S1; 72 h
Experimental: (§1) Leishmania parasites were resuspended with the corresponding drug concentration at 2 × 10^6 parasites/mL (final concentration) in their respective growth media in 96 microwell plates (200 µL/well). The parasites were allowed to growth for 72 h at 26 °C for promastigotes and 96 h at 32 °C for axenic amastigotes. Afterwards, inhibition of proliferation was measured by the inhibition of MTT reduction by the parasites. […] MTT reduction was allowed to proceed for 2 h at the respective temperature, and the resulting formazan solubilised by addition of 50 µL/well of 10% SDS. Afterwards, the plate was read at 595 nm in a BioRad Microplate-reader, model 680. Samples were made by triplicate and assays were repeated at least twice.

[2] = test system: L. pifanoi axenic amastigotes; assay: Leishmanicidal assay on axenic amastigotes (inhibition of MTT reduction); type: cell-based, Leishmania pifanoi; settings: Table S1; 96 h; read-out: L. pifanoi amast. ax EC50
Experimental: as §1

hGSK-3β = hGSK-3β (Homo sapiens, UniProt P49841); assay: hGSK-3β inhibition; type: biochemical; settings: Table 2
hGSK-3β, sequence (P49841 whole entry): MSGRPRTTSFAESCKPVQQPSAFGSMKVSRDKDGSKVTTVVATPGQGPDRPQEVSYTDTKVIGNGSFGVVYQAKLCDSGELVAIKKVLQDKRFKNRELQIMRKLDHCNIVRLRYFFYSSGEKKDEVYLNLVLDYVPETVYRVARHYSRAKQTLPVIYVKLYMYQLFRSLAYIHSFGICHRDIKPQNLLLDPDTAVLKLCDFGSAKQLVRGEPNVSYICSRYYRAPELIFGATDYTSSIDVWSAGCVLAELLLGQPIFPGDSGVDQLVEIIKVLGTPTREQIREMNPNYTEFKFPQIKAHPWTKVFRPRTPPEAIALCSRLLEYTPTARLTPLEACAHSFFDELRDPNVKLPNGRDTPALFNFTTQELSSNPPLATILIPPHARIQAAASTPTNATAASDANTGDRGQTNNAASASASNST

LdGSK-3, sequence (A6N857 entry or part of it): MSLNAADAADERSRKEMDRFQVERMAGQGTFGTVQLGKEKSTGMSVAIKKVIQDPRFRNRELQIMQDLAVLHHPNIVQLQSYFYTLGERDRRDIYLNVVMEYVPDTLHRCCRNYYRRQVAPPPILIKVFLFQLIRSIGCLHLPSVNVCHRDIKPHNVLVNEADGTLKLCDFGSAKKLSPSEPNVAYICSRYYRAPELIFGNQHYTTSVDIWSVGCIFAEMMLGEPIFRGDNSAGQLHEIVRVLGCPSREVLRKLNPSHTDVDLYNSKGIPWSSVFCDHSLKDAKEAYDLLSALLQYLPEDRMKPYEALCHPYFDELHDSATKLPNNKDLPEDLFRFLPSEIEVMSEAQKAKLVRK

SMILES: COc1ccc(CNC(=O)Nc2nc(C)c(C(C)=O)s2)cc1 [Compound 18]
- LdGSK-3 % inhibition (LdGSK-3; Table S1, @10 µM): < 20%
- EC50 [1]: > 50000 nM
- EC50 [2]: > 50000 nM

SMILES: CN(C)S(=O)(=O)c1ccc(-c2cnc(N)c(-c3nc4ccc(F)cc4[nH]3)c2)cc1 [Compound 71]
- IC50 (hGSK-3β): 1230 ± 140 nM
- IC50 (LdGSK-3; Table 2): 3600 nM
- % inhibition @ 10µM (initial screening on LdGSK3) (LdGSK-3): 74.63±1.76%
- percentage of inhibition of LdGSK-3 (LdGSK-3): higher than 50%

SMILES: COc1ccc(Nc2nccc(N(C)c3n[nH]c4c(F)cccc34)n2)cc1S(C)(=O)=O [Compound 95]
- IC50 (hGSK-3β): 1400 ± 250 nM
- IC50 (LdGSK-3; Table 2): 460 ± 70 nM
- % inhibition @ 10µM (initial screening on LdGSK3) (LdGSK-3): 90.25±1.12%
- percentage of inhibition of LdGSK-3 (LdGSK-3): higher than 50%

SMILES: CN(C)Cc1cccc(Nc2nccc(-c3ccc(NCCN)c(C#N)c3)n2)c1 [Compound 119]
- IC50 (hGSK-3β): 240 ± 40 nM
- IC50 (LdGSK-3; Table 2): 270 nM
- % inhibition @ 10µM (initial screening on LdGSK3) (LdGSK-3): 100.29±1.24%
- percentage of inhibition of LdGSK-3 (LdGSK-3): higher than 50%

SMILES: Cc1ccc(S(C)(=O)=O)cc1Nc1nccc(-c2sc(N)nc2-c2ccccc2)n1 [Compound 124]
- IC50 (hGSK-3β): 810 ± 340 nM
- IC50 (LdGSK-3; Table 2): 6000 nM
- % inhibition @ 10µM (initial screening on LdGSK3) (LdGSK-3): 70.59±3.12%
- percentage of inhibition of LdGSK-3 (LdGSK-3): higher than 50%

SMILES: N#Cc1cc(-c2ccnc(Nc3cccc(CN4CCOCC4)c3)n2)ccc1NCCN [Compound 128]
- IC50 (hGSK-3β): 1320 ± 350 nM
- IC50 (LdGSK-3; Table 2): 1700 nM
- % inhibition @ 10µM (initial screening on LdGSK3) (LdGSK-3): 99.46±0.78%
- percentage of inhibition of LdGSK-3 (LdGSK-3): higher than 50%

SMILES: O=S(=O)(c1cccc(CSc2nnc(-c3ccc4c(c3)OCO4)o2)c1)N1CCOCC1 [Compound 151]
- IC50 (hGSK-3β): 20 ± 10 nM
- IC50 (LdGSK-3; Table 2): 2540 ± 480 nM
- % inhibition @ 10µM (initial screening on LdGSK3) (LdGSK-3): 61.89±2.34%
- percentage of inhibition of LdGSK-3 (LdGSK-3): higher than 50%

SMILES: COc1ccc(S(=O)(=O)Nc2ccc(C(=O)Nc3nc(-c4ccccn4)cs3)cc2)cc1 [Compound 175]
- % inhibition @ 10µM (initial screening on LdGSK3) (LdGSK-3): 16.65±1.70%

SMILES: COc1cc(Cl)c(C)cc1NC(=O)c1ccc([N+](=O)[O-])s1 [Compound 176]
- % inhibition @ 10µM (initial screening on LdGSK3) (LdGSK-3): 8.55±1.75%

SMILES: Nc1nc(-c2ccccn2)nc(-n2nc(-c3ccccc3)cc2N)n1.O=C(O)C(F)(F)F.O=C(O)C(F)(F)F.O=C(O)C(F)(F)F.O=C(O)C(F)(F)F.O=C(O)C(F)(F)F.O=C(O)C(F)(F)F.O=C(O)C(F)(F)F.O=C(O)C(F)(F)F [Compound 177]
- % inhibition @ 10µM (initial screening on LdGSK3) (LdGSK-3): 17.70±1.20%

SMILES: O=C(CCc1ccc(-c2ccccc2)o1)N1CCN(c2ccc(O)cc2)CC1 [Compound 178]
- % inhibition @ 10µM (initial screening on LdGSK3) (LdGSK-3): 28.65±1.95%

SMILES: COc1cc(C2SCC(=O)Nc3c2c(C)nn3-c2nc3ccccc3s2)cc(OC)c1O (stereo not shown) [Compound 179]
- % inhibition @ 10µM (initial screening on LdGSK3) (LdGSK-3): 29.35±2.80%

SMILES: O=C(COc1nn(-c2ccccc2)c2ncccc12)NCc1ccccc1 [Compound 180]
- % inhibition @ 10µM (initial screening on LdGSK3) (LdGSK-3): 17.50±3.45%

SMILES: CC(C)(C)c1csc(NC(=O)c2ccc([N+](=O)[O-])s2)n1 [Compound 181]
- % inhibition @ 10µM (initial screening on LdGSK3) (LdGSK-3): 5.90±2.90%

SMILES: CCN(Cc1nc2ccc(C(=O)N3CCN(c4ncccn4)CC3)cc2[nH]1)C1CCCc2cccnc21 (stereo not shown) [Compound 182]
- % inhibition @ 10µM (initial screening on LdGSK3) (LdGSK-3): 9.60±1.20%

SMILES: COc1ccc2ncc(Cl)c(CCN3CC[C@H](NCc4cc5c(cn4)OCS5)[C@@H](O)C3)c2n1 [Compound 183]
- % inhibition @ 10µM (initial screening on LdGSK3) (LdGSK-3): 14.80±2.25%

SMILES: O=C(CSc1nnc(-c2ccc3c(c2)OCO3)o1)N(Cc1ccco1)CC(F)(F)F [Compound 184]
- % inhibition @ 10µM (initial screening on LdGSK3) (LdGSK-3): 53.23±3.29%
- percentage of inhibition of LdGSK-3 (LdGSK-3): higher than 50%

SMILES: O=C(Nc1ccc(C(F)(F)F)cc1)Nc1cccc([N+](=O)[O-])c1 [Compound 185]
- % inhibition @ 10µM (initial screening on LdGSK3) (LdGSK-3): 1.70±0.75%

SMILES: Cc1cc(NC(=O)c2ccc([N+](=O)[O-])s2)ccc1Br [Compound 186]
- % inhibition @ 10µM (initial screening on LdGSK3) (LdGSK-3): 3.65±2.60%

SMILES: Cc1cc2cc(CNc3ccc4c(c3)OCO4)c(=O)n(CCO)c2cc1C [Compound 188]
- % inhibition @ 10µM (initial screening on LdGSK3) (LdGSK-3): 20.90±4.45%

SMILES: O=C(c1cccc(Nc2ncc(-c3ccc4c(c3)OCO4)cn2)c1)N1CCOCC1 [Compound 189]
- % inhibition @ 10µM (initial screening on LdGSK3) (LdGSK-3): 12.20±0.75%

SMILES: Nc1nc(-c2ccccn2)nc(N)c1Cc1c(F)cccc1Cl [Compound 190]
- % inhibition @ 10µM (initial screening on LdGSK3) (LdGSK-3): 8.15±3.40%

SMILES: CCOc1ccccc1C(=O)Nc1nnc(-c2ccc3c(c2)OCO3)s1 [Compound 191]
- % inhibition @ 10µM (initial screening on LdGSK3) (LdGSK-3): 12.20±2.70%

SMILES: CC(C)(C)Nc1nc(-c2ccccn2)nc2ccccc12 [Compound 192]
- % inhibition @ 10µM (initial screening on LdGSK3) (LdGSK-3): -2.40±2.70%

SMILES: O=C(CN(Cc1ccccn1)Cc1ccccn1)NCc1ccc2c(c1)OCO2.O=C(O)C(F)(F)F [Compound 193]
- % inhibition @ 10µM (initial screening on LdGSK3) (LdGSK-3): 2.65±4.15%

SMILES: COc1ccc(C2C3CCCCC3(O)CCN2CC(=O)Nc2ccc(Cl)cc2Cl)cc1 (stereo not shown) [Compound 194]
- % inhibition @ 10µM (initial screening on LdGSK3) (LdGSK-3): 0.90±4.25%

SMILES: COc1ccccc1C1CC(c2ccc(NS(C)(=O)=O)cc2)=NN1C(=O)c1cccs1 (stereo not shown) [Compound 195]
- % inhibition @ 10µM (initial screening on LdGSK3) (LdGSK-3): 16.55±4.05%

SMILES: Cc1cc(C)n(-c2nc(NC(C)(C)C)nc(N3CCOCC3)n2)n1 [Compound 196]
- % inhibition @ 10µM (initial screening on LdGSK3) (LdGSK-3): -2.80±6.35%

SMILES: CCN(Cc1cccs1)C(=O)CSc1nnc(-c2ccc3c(c2)OCO3)o1 [Compound 197]
- % inhibition @ 10µM (initial screening on LdGSK3) (LdGSK-3): 10.05±1.90%

SMILES: Cc1nc(C(=O)Nc2ccc3c(c2)OCO3)nn1-c1ccc(F)cc1 [Compound 198]
- % inhibition @ 10µM (initial screening on LdGSK3) (LdGSK-3): 7.15±1.10%

SMILES: CC1CN(Cc2ccc(C#N)cc2)CCN1c1ccc(NC(=O)c2ccccc2F)cc1.O=C(O)C(F)(F)F.O=C(O)C(F)(F)F (stereo not shown) [Compound 199]
- % inhibition @ 10µM (initial screening on LdGSK3) (LdGSK-3): 8.70±1.75%

SMILES: COc1ccc2ncc(=O)n(CCN3CCC(NCc4ccc(-c5cccs5)cc4)CC3)c2n1 [Compound 200]
- % inhibition @ 10µM (initial screening on LdGSK3) (LdGSK-3): 20.95±1.30%

SMILES: COc1ccc(-c2csc(NC(=O)c3ccc([N+](=O)[O-])s3)n2)cc1 [Compound 201]
- % inhibition @ 10µM (initial screening on LdGSK3) (LdGSK-3): 18.65±3.35%

SMILES: CC1CCCN(S(=O)(=O)c2ccc(C(=O)Nc3nc(-c4ccccn4)cs3)cc2)C1 (stereo not shown) [Compound 202]
- % inhibition @ 10µM (initial screening on LdGSK3) (LdGSK-3): 6.50±2.15%

SMILES: Cc1ccccc1CNC(=O)CN(Cc1ccccn1)Cc1ccccn1.O=C(O)C(F)(F)F [Compound 203]
- % inhibition @ 10µM (initial screening on LdGSK3) (LdGSK-3): 4.90±2.30%

SMILES: CN(C)CCN(C)Cc1ccc(Cl)cc1NS(=O)(=O)c1ccc(Cl)c(Cl)c1 [Compound 204]
- % inhibition @ 10µM (initial screening on LdGSK3) (LdGSK-3): 8.00±4.85%

SMILES: Cc1nc(-c2ccc3c(c2)OCO3)sc1C(=O)NCc1ccc2c(c1)OCO2 [Compound 205]
- % inhibition @ 10µM (initial screening on LdGSK3) (LdGSK-3): 14.00±2.25%

SMILES: C=CCN(Cc1cccs1)C(=O)CSc1nnc(-c2ccc3c(c2)OCO3)o1 [Compound 206]
- % inhibition @ 10µM (initial screening on LdGSK3) (LdGSK-3): 10.00±0.90%

SMILES: CCN(CC)c1ccc(S(=O)(=O)N(CC)CC)c2nonc12 [Compound 207]
- % inhibition @ 10µM (initial screening on LdGSK3) (LdGSK-3): 8.90±5.85%

SMILES: O=C(CN1CCN(c2ccccn2)CC1)Nc1cc(S(=O)(=O)N2CCCCCC2)ccc1Cl [Compound 208]
- % inhibition @ 10µM (initial screening on LdGSK3) (LdGSK-3): 10.20±3.25%

SMILES: Cc1nc(N2CC(C)OC(C)C2)sc1C(=O)Nc1ccc2c(c1)OCO2 (stereo not shown) [Compound 209]
- % inhibition @ 10µM (initial screening on LdGSK3) (LdGSK-3): 16.10±4.80%

SMILES: COc1ccc([N+](=O)[O-])cc1NC(=O)c1cc(Cl)ccc1O [Compound 210]
- % inhibition @ 10µM (initial screening on LdGSK3) (LdGSK-3): 17.65±3.55%

SMILES: O=C1Nc2ccc(S(=O)(=O)O)cc2C1=C1Nc2ccccc2C1=NO [Indirubin-3’-monoxime-5-sulphonic acid, reference compound]
- IC50 (LdGSK-3; Table 1): 2400 nM
